Our source for the inhibition and pest or weed control values is patent publication US12540118B2, “Dendrene amide compound, bactericide and use thereof” (Jiangsu Flag Chemical Industry Co., Ltd., priority 2020, dated 2026).

One experiment addresses T1, succinate dehydrogenase (Sus scrofa, UniProt A5GZW8+D0VWV4+Q007T0).
T1 construct: isolated from porcine hearts; from tissue; host or cells: porcine heart
As to the kind of experiment: Enzyme activity assay, succinate dehydrogenase (DCIP reduction). The format is biochemical, porcine. The settings on record: read-out: Inhibitors (10 μM, SQR). Summed up:
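Porcine heart succinate dehydrogenase (2 nM) in 100 mM sodium phosphate pH 7.4, 0.3 mM EDTA, 20 mM sodium succinate and 53 μM DCIP at 23° C with stirring. DCIP reduction followed at 600 nm (ε 21 mM^−1 cm^−1); linear slope minus baseline gives initial rate.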

The next experiment has as its system Erysiphe graminis. As to the kind of experiment: Erysiphe graminis potting method. It is filed as in vivo. Conditions: Blumeria graminis; 100 mg/L; read-out: Erysiphe graminis control rating. The protocol:
The fungicidal activity of the control agents and target compounds are determined. The test and investigation method refers to SOP-SC-1116 Erysiphe graminis potting method in disinfectant rolls written by KANGZHUO and GUBAOGEN in “Standard operation specification for testing biological activity of pesticides”.

In another experiment the test system is Sphaerotheca fuliginea. As to the kind of experiment: Sphaerotheca fuliginea potting method. The format is in vivo. The settings on record: Podosphaera fuliginea; 100 mg/L; read-out: Sphaerotheca fuliginea control rating. Here is the method:
The fungicidal activity of the control agents and target compounds are determined. The test and investigation method refers to SOP-SC-1101 sphaerotheca fuliginea potting method in disinfectant rolls written by KANGZHUO and GUBAOGEN in “Standard operation specification for testing biological activity of pesticides”.

Bounds are passed on as bounds.

T1 sequence (Q0QF01 43-664 partner): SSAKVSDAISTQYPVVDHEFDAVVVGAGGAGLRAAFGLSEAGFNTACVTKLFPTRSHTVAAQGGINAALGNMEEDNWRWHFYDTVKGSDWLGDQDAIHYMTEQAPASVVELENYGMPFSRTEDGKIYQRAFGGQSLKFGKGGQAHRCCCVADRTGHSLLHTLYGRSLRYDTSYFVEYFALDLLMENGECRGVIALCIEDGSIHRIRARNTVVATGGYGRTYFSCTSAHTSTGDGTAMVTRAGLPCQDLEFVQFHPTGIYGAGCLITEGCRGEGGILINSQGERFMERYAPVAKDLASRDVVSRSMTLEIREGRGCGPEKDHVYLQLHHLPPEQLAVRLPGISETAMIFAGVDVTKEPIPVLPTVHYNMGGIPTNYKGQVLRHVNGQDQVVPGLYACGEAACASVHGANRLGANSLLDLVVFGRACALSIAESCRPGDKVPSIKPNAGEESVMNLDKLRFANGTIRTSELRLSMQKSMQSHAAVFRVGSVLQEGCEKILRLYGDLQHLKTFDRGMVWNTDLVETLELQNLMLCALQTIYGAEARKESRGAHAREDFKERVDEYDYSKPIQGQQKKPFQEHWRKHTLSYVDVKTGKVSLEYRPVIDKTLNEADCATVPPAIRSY
T1 sequence (Q007T0 29-280): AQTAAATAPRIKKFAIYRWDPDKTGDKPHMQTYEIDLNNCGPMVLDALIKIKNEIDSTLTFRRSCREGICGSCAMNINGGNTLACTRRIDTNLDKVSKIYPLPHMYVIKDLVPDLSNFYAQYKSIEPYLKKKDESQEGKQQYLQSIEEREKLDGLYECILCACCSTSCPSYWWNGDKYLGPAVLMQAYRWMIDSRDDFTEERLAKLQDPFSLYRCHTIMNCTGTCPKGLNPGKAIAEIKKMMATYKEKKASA
T1 sequence (D0VWV4 30-169): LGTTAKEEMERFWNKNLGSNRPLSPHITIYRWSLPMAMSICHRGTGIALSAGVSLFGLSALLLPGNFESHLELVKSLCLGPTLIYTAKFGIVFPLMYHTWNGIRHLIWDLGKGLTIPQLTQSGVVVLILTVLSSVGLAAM
T1 sequence (A5GZW8 57-159 limits assumed): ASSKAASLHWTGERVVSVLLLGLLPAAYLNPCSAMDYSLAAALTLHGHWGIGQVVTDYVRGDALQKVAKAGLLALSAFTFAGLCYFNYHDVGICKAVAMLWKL

In the case of `Cn1nc(C(F)F)c(C(=O)N(CC(=C(Cl)Cl)c2cc(C(F)(F)F)ccc2Cl)C2CC2)c1F` [Compound 156], the inhibition at 10 µM on succinate dehydrogenase is > 90%. Moreover, the pest or weed control at 100 µg/mL in the experiment with Erysiphe graminis and with Sphaerotheca fuliginea was 80 to 100% in each case.
Turning to `Cn1nc(C(F)F)c(C(=O)N(CC(=C(Cl)Cl)c2cccc(C(F)(F)F)c2Cl)C2CC2)c1F` [Compound 157], the inhibition at 10 µM at succinate dehydrogenase is > 90%. Further, the pest or weed control at 100 µg/mL with Erysiphe graminis and in the experiment with Sphaerotheca fuliginea was 80 to 100% each time.
As to `Cn1nc(C(F)F)c(C(=O)N(CC(=C(Cl)Cl)c2ccc(C(F)(F)F)cc2Cl)C2CC2)c1F` [Compound 158], the inhibition at 10 µM at succinate dehydrogenase was > 90%. Further, the pest or weed control at 100 µg/mL in the experiment on Erysiphe graminis and with Sphaerotheca fuliginea was 80 to 100% in each case.
On to `Cn1nc(C(F)F)c(C(=O)N(CC(=C(Cl)Cl)c2ccc(S(C)(=O)=O)cc2Cl)C2CC2)c1F` [Compound 159], for which, on succinate dehydrogenase, the inhibition at 10 µM is > 90%. In addition, the pest or weed control at 100 µg/mL with Erysiphe graminis and with Sphaerotheca fuliginea was 80 to 100% each time.
Regarding `Cn1nc(C(F)F)c(C(=O)N(CC(=C(Cl)Cl)c2cccc(S(C)(=O)=O)c2)C2CC2)c1F` [Compound 160], the inhibition at 10 µM on succinate dehydrogenase is > 90%. In addition, the pest or weed control at 100 µg/mL with Erysiphe graminis and in the experiment on Sphaerotheca fuliginea was 80 to 100% in each case.
For the compound `Cn1nc(C(F)F)c(C(=O)N(CC(=C(Cl)Cl)c2ccccc2S(C)(=O)=O)C2CC2)c1F` [Compound 161], the inhibition at 10 µM at succinate dehydrogenase was > 90%. Moreover, the pest or weed control at 100 µg/mL with Erysiphe graminis and with Sphaerotheca fuliginea was 80 to 100% each time.
Regarding `Cn1nc(C(F)F)c(C(=O)N(CC(=C(Cl)Cl)c2cc(S(C)(=O)=O)ccc2Cl)C2CC2)c1F` [Compound 162], the inhibition at 10 µM at succinate dehydrogenase was > 90%. The pest or weed control at 100 µg/mL with Erysiphe graminis and in the experiment with Sphaerotheca fuliginea was 80 to 100% in each case.
Consider `CCS(=O)(=O)c1ccc(C(CN(C(=O)c2c(C(F)F)nn(C)c2F)C2CC2)=C(Cl)Cl)cc1` [Compound 163], for which, on succinate dehydrogenase, the inhibition at 10 µM is > 90%. The pest or weed control at 100 µg/mL with Erysiphe graminis and in the experiment on Sphaerotheca fuliginea was 80 to 100% in each case.
Consider `CCS(=O)(=O)c1cccc(C(CN(C(=O)c2c(C(F)F)nn(C)c2F)C2CC2)=C(Cl)Cl)c1` [Compound 164], for which the inhibition at 10 µM on succinate dehydrogenase is > 90%. Also, the pest or weed control at 100 µg/mL in the experiment on Erysiphe graminis and in the experiment with Sphaerotheca fuliginea was 80 to 100% each time.
In the case of `Cn1nc(C(F)F)c(C(=O)N(CC(=C(Cl)Cl)c2ccc(C#CC3CC3)cc2Cl)C2CC2)c1F` [Compound 165], on succinate dehydrogenase, the inhibition at 10 µM was > 90%. For the same compound, the pest or weed control at 100 µg/mL in the experiment on Erysiphe graminis and in the experiment with Sphaerotheca fuliginea was 80 to 100% each time.
With `CC(C(=C(Cl)Cl)c1ccccc1Cl)N(C(=O)c1c(C(F)F)nn(C)c1F)C1CC1` (stereo not drawn) [Compound 168], the inhibition at 10 µM at succinate dehydrogenase was > 90%. Moreover, the pest or weed control at 100 µg/mL in the experiment on Erysiphe graminis and with Sphaerotheca fuliginea was 80 to 100% in each case.
For `CC(C(=C(Cl)Cl)c1cccc(Cl)c1)N(C(=O)c1c(C(F)F)nn(C)c1F)C1CC1` (stereo not drawn) [Compound 169], the inhibition at 10 µM at succinate dehydrogenase was > 90%. In addition, the pest or weed control at 100 µg/mL in the experiment on Erysiphe graminis and in the experiment with Sphaerotheca fuliginea was 80 to 100% throughout.
Take `CC(C(=C(Cl)Cl)c1ccc(Cl)cc1Cl)N(C(=O)c1c(C(F)F)nn(C)c1F)C1CC1` (stereo not drawn) [Compound 170]: the inhibition at 10 µM at succinate dehydrogenase was > 90%. For the same compound, the pest or weed control at 100 µg/mL in the experiment on Erysiphe graminis and in the experiment with Sphaerotheca fuliginea was 80 to 100% in each case.
`CC(C(=C(Cl)Cl)c1cc(Cl)ccc1Cl)N(C(=O)c1c(C(F)F)nn(C)c1F)C1CC1` (stereo not drawn) [Compound 171]: the inhibition at 10 µM on succinate dehydrogenase was > 90%. Further, the pest or weed control at 100 µg/mL in the experiment with Erysiphe graminis and with Sphaerotheca fuliginea was 80 to 100% throughout.
In the case of `CC(C(=C(Cl)Cl)c1c(Cl)cccc1Cl)N(C(=O)c1c(C(F)F)nn(C)c1F)C1CC1` (stereo not drawn) [Compound 172], the inhibition at 10 µM at succinate dehydrogenase is > 90%. Moreover, the pest or weed control at 100 µg/mL with Erysiphe graminis and with Sphaerotheca fuliginea was 80 to 100% throughout.
